These results are taken from PMC5814754, “Quantitative, Wide-Spectrum Kinase Profiling in Live Cells for Assessing the Effect of Cellular ATP on Target Engagement” (Cell Chemical Biology, 2018).

Read-outs that look alike come from different tables or passages of the source.

The target in one assay is 178 full-length kinases (Homo sapiens, UniProt Q9Y2K2). The assay is described as follows: NanoBRET single-dose fractional occupancy profiling of kinase/Nluc library in live HEK293 cells (Table S1). Set-up: Occupancy, % Replicate 1 / Occupancy, % Replicate 2: unit of the concentration uncertain. Type of assay: binding. As to conditions: SIK3 (NP_079440), Nluc orientation N, probe 6 at 1 (unit uncertain). In general terms: In BRET a luciferase serves as donor, and the signal depends on an acceptor being close.
Chain of 178 full-length kinases (Q9Y2K2 whole entry): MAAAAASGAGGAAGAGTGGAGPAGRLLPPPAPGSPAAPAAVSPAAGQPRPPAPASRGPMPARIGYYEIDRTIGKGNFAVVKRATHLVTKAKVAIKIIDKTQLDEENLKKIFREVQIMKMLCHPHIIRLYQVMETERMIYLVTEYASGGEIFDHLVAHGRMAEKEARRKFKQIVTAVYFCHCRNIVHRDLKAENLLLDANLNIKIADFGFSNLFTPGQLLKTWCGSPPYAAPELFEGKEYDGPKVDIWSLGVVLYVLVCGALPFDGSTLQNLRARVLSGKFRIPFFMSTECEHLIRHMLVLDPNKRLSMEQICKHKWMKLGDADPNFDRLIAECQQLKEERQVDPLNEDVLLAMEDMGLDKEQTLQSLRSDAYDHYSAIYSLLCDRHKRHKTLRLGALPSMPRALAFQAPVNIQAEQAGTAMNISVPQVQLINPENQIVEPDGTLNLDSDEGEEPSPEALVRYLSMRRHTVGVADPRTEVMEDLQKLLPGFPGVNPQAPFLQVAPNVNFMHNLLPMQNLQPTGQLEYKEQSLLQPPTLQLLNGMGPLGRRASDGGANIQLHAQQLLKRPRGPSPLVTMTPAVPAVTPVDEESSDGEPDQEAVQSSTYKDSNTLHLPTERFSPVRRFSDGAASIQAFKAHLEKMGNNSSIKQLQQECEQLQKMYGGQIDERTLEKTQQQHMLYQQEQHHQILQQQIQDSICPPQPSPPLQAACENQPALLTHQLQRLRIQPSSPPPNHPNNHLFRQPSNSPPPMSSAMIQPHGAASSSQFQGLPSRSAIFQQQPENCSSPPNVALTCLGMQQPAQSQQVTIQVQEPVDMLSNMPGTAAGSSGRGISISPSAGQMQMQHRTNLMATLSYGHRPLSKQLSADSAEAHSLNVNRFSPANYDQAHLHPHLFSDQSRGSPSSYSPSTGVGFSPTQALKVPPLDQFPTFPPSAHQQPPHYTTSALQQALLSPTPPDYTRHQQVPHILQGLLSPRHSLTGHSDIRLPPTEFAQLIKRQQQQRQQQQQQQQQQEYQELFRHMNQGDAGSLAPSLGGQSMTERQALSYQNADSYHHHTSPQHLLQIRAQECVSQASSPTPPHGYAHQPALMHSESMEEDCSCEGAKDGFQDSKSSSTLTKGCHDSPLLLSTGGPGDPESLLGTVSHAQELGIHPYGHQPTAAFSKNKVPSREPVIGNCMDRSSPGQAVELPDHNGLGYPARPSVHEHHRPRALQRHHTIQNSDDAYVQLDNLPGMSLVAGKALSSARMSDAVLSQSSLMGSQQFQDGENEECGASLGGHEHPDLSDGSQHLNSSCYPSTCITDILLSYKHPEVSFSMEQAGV

For assay [1], the system named is LCK. As to conditions: read-out: cellular potency (phospho-ELISA), ref Cui et al., 2011; cited from earlier work. (In general: ELISA stands for enzyme-linked immunosorbent assay.)
Assay [2] relates to AXL. Conditions: read-out: Crizotinib IC50 Biochemical; ref Cui et al., 2011; cited from earlier work.
For a further assay, the system named is TRKB. Conditions: read-out: Crizotinib IC50 Biochemical; ref Cui et al., 2011; cited from earlier work.
In assay [3] the test system is TRKA. As to conditions: read-out: Crizotinib IC50 Biochemical; ref Cui et al., 2011; cited from earlier work.
Assay [4] has as its system MET. As to conditions: read-out: Live Cell IC50 Phospho Elisa; ref Cui et al., 2011; cited from earlier work.
The subject of assay [5] is ABL. Conditions: read-out: Crizotinib IC50 Biochemical; ref Cui et al., 2011; cited from earlier work.
The next assay has as its system TIE2. Conditions: read-out: Crizotinib IC50 Biochemical; ref Cui et al., 2011; cited from earlier work.
Assay [6] relates to TRKA. Conditions: read-out: Live Cell IC50 Phospho Elisa; ref Cui et al., 2011; cited from earlier work.
For a further assay, the system named is INSR. Conditions: read-out: Live Cell IC50 Phospho Elisa; ref Cui et al., 2011; cited from earlier work.
Assay [7] deals with MET. As to conditions: read-out: Crizotinib IC50 Biochemical; ref Cui et al., 2011; cited from earlier work.
Assay [8] relates to ABL. As to conditions: read-out: Live Cell IC50 Phospho Elisa; ref Cui et al., 2011; cited from earlier work.
For a further assay, the target named is T1, EPHB6 (Homo sapiens, UniProt O15197).
T1 sequence (O15197 32-1021): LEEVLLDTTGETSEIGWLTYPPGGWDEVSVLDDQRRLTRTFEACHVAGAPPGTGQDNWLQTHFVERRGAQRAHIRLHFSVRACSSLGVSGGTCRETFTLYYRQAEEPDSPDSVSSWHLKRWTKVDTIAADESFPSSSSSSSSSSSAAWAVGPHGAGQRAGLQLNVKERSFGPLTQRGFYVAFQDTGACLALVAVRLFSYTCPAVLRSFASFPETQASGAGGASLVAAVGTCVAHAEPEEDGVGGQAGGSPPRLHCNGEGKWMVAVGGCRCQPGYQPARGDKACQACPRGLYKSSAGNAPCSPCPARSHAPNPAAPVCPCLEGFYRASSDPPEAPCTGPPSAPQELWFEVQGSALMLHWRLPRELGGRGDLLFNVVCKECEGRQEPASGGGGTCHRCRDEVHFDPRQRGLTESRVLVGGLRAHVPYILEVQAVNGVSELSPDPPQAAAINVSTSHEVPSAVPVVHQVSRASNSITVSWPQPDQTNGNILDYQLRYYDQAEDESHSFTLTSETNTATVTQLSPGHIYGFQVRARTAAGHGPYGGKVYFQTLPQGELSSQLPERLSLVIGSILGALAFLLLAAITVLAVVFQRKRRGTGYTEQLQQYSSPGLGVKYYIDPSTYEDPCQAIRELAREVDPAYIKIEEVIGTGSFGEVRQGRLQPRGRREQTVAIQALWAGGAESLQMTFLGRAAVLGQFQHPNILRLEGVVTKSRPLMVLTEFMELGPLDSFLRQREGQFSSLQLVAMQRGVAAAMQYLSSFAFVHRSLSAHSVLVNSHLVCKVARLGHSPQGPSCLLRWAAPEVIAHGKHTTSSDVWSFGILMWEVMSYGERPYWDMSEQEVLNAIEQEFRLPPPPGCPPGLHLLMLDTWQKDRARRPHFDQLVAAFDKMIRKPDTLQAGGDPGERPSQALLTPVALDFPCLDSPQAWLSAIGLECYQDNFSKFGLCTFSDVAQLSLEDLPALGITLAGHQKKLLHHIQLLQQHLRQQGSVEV
Put plainly: NanoBRET target engagement, EPHB6-NanoLuc, HEK293 cells (live, ATP depleted, permeabilized). As to conditions: for EC50: read-out: Tracer Affinity EC50, EPHB6-NanoLuc.

In assay [9] the test system is LCK. As to conditions: read-out: Crizotinib IC50 Biochemical; ref Cui et al., 2011; cited from earlier work.
In assay [10] the test system is AXL. As to conditions: read-out: Live Cell IC50 Phospho Elisa; ref Cui et al., 2011; cited from earlier work.
The target of assay [11] is full-length kinase/Nluc fusion proteins (Homo sapiens, UniProt P06239). The assay is described as follows: Apparent affinity (EC50) of energy transfer probes by titration onto live HEK293 cells expressing kinase/Nluc fusions (Table S1). Type of assay: binding. Conditions: LCK.
Chain of full-length kinase/Nluc fusion proteins (P06239 whole entry, the tested form may be a part): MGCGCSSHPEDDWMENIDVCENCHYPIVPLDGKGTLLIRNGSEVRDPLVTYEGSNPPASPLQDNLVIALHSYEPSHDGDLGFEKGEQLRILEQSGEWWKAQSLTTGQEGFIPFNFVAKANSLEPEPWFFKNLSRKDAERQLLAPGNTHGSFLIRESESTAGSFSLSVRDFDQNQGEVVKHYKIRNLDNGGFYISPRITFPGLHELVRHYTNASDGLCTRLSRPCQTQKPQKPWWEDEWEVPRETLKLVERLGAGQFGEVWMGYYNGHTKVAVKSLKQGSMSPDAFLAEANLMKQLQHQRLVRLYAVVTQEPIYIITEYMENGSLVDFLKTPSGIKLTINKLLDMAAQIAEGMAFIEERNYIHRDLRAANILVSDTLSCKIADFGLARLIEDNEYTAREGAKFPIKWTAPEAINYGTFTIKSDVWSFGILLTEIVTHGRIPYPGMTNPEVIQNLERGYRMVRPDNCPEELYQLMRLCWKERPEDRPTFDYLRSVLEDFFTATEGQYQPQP
The target of assay [12] is LCK (Homo sapiens, UniProt P06239). The assay is described as follows: NanoBRET target engagement, LCK-NanoLuc, HEK293 cells (live, ATP depleted, permeabilized). Conditions: LCK-NanoLuc, read-out: Tracer Affinity EC50. In kind it is binding.
Chain of LCK (P06239 whole entry): as the sequence (P06239 whole entry, the tested form may be a part) above
Another assay has as its target T2, MuSK (Homo sapiens, UniProt O15146).
T2 sequence (O15146 24-869): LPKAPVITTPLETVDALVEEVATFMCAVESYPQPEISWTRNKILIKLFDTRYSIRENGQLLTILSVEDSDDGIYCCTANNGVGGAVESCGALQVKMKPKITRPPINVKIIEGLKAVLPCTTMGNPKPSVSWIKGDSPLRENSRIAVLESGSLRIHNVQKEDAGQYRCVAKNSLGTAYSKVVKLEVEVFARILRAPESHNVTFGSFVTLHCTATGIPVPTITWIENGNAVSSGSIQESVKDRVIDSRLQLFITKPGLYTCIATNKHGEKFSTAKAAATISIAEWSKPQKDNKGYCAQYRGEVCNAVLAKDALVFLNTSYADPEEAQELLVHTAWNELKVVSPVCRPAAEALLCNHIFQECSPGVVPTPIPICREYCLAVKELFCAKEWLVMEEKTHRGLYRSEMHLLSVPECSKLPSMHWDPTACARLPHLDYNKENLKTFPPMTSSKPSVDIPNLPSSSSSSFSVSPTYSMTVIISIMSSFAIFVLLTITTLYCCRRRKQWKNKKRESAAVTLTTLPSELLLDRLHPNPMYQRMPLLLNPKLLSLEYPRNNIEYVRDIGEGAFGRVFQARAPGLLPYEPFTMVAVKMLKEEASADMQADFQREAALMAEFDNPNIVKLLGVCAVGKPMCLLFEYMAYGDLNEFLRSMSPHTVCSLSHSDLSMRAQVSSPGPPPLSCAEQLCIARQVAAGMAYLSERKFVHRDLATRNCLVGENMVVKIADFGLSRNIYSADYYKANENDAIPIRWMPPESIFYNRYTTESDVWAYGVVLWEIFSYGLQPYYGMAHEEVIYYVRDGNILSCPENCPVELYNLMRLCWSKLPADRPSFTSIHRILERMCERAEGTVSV
Put plainly: NanoBRET target engagement, MuSK-NanoLuc, HEK293 cells (live, ATP depleted, permeabilized). Type of assay: binding. Conditions: read-out: Tracer Affinity EC50.

As to `C[C@@H](Oc1cc(-c2cnn(C3CCNCC3)c2)cnc1N)c1c(Cl)ccc(F)c1Cl` [Crizotinib], the “Occupancy, % Replicate 1” value at 178 full-length kinases (replicate 1) is “No Binding”. Moreover, the “Occupancy, % Replicate 2” value at 178 full-length kinases (replicate 2) is “No Binding”. Besides, the IC50 was […] in the assay on LCK [1]; […] with AXL [2]; […] in the assay with TRKB; […] in the assay on TRKA [3]; […] with MET [4]; […] in the assay on ABL [5]. Moreover, the IC50 in the assay with TIE2 is […]; in the assay on TRKA [6], 580 nM; in the assay on INSR it was […]; with MET [7] it was […]; in the assay on ABL [8] it was […]; in the assay with LCK [9] it was […]. The IC50 with AXL [10] was […]. For the same compound, the receptor occupancy at 1 µM on EPHB6 (read-out: cellular occupancy) is less than 10%.

By EC50 is commonly meant the concentration at which the effect is half-maximal. For the compound `CNC(=O)c1ccccc1Nc1nc(Nc2ccc(N3CCN(C(=O)CCOCCOCCOCCOCCNC(=O)CCc4ccc5n4[B-](F)(F)[N+]4=C(c6ccc[nH]6)C=CC4=C5)CC3)cc2)ncc1Cl` [Energy Transfer Probe 5, 2-((2-((4-(4-(1-amino-3,6,9,12-tetraoxapentadecan-15-oyl)piperazin-1-yl)phenyl)amino)-5-chloropyrimidin-4-yl)amino)-N-methylbenzamide-NanoBRET 590], the concentration for a half-maximal effect (EC50) in assay [11] (Nluc C (probe 5)) was greater than 1000 nM; at LCK [12] (ATP Depleted) it was 370 ± 70 nM; on LCK [12] (Live) it was greater than 1000 nM; at LCK [12] (Permeabilized) it was 52 ± 3 nM; on MuSK (ATP Depleted), greater than 1000 nM; on MuSK (Live), greater than 1000 nM. Also, the EC50 on MuSK (Permeabilized) was 180 ± 20 nM.

For `Cc1nc(Nc2ncc(C(=O)Nc3c(C)cccc3Cl)s2)cc(N2CCN(CCOCCNC(=O)CCc3ccc4n3[B-](F)(F)[N+]3=C(c5ccc[nH]5)C=CC3=C4)CC2)n1` [Energy Transfer Probe 6, 2-((6-(4-(2-(2-aminoethoxy)ethyl)piperazin-1-yl)-2-methylpyrimidin-4-yl)amino)-N-(2-chloro-6-methylphenyl)thiazole-5-carboxamide-NanoBRET 590], the concentration giving a half-maximal response (EC50) in [11] (Nluc C (probe 6)) is greater than 1000 nM; on EPHB6 (ATP Depleted), greater than 1000 nM; at EPHB6 (Live), greater than 1000 nM; at EPHB6 (Permeabilized), 7 ± 3 nM.
